Experimental data from US10052306B2 (LUC THERAPEUTICS, INC., priority 2013, dated 2018).

Experiments:
NR1/NR2B [1] = biological target: NR1/NR2B (Homo sapiens (Human), UniProt Q05586+Q13224); test: Cell assay: FDSS Ca2+ influx inhibition in HEK293 cells expressing NR1/NR2B; settings: Binned Activity, HEK293 cells expressing NR1/NR2B, Ca2+ influx; binned NR2B NAM IC50;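 note: Fluo-8 Ca2+ signal read on Hamamatsu FDSS 6000 after glutamate, glycine and Ca2+ challenge following 10 min compound preincubation, end/baseline fluorescence ratio compared with MK801 control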
Chain of NR1/NR2B (Homo sapiens (Human), UniProt Q05586+Q13224) (Q13224 27-1484, other chains not shown): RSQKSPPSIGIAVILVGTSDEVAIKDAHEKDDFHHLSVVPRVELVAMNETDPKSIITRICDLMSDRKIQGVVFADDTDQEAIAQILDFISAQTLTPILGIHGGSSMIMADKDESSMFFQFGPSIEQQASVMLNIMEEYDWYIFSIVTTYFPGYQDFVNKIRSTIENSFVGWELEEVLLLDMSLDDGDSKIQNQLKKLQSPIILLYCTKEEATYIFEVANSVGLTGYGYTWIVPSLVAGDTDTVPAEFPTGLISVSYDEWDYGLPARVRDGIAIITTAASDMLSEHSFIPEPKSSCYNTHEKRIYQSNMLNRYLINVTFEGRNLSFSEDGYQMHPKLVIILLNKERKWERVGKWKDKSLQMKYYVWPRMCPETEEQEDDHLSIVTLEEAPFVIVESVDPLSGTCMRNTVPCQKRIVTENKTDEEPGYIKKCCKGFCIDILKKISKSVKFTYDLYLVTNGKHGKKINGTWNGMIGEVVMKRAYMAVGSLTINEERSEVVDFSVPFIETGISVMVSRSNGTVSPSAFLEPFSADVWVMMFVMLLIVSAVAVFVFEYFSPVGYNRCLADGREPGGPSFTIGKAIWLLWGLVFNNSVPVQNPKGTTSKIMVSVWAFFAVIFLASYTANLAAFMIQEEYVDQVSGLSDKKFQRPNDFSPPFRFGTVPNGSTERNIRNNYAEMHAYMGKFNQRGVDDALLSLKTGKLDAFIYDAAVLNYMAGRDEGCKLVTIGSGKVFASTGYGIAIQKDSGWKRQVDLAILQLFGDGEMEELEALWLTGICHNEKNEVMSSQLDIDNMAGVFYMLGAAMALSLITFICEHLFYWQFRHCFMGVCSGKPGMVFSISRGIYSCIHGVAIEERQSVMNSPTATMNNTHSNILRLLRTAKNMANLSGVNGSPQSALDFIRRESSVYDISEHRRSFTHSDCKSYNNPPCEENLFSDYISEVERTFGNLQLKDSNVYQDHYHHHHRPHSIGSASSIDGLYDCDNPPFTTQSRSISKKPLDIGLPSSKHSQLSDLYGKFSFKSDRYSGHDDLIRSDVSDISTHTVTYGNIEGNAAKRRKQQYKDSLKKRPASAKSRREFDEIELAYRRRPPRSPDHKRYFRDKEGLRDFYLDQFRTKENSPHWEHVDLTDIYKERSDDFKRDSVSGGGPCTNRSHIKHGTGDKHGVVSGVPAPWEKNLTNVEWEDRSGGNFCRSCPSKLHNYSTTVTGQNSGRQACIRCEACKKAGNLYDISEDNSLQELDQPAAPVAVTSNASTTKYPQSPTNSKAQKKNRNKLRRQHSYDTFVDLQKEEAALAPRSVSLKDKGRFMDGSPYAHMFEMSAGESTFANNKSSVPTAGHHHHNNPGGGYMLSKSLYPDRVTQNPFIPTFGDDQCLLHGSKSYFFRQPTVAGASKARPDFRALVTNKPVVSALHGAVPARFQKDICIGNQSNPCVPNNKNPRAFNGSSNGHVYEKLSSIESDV

NR1/NR2B [2] = biological target: NR1/NR2B (Homo sapiens (Human), UniProt Q13224); test: as above; settings: read-out: NR2B NAM IC50; HEK293 cells expressing NR1/NR2B, Ca2+ influx
Chain of NR1/NR2B (Homo sapiens (Human), UniProt Q13224) (Q13224 27-1484, other chains not shown): as above

Structure (SMILES)	IC50 (NR1/NR2B [1])	IC50 (NR1/NR2B [2])
Cc1cc(C)cc(C[C@]2(O)C[C@H]3CN(CC(=O)c4ccc(O)cc4)C[C@H]3C2)c1 [Example 212, 2-[(3aR,5R,6aS)-5-[(3,5-dimethylphenyl)methyl]-5-hydroxy-octahydrocyclopenta[c]pyrrol-2-yl]-1-(4-hydroxyphenyl)ethan-1-one]	> 10 µM	10 µM
Cc1cccc(-c2ccc(C(=O)CN3C[C@@H]4C[C@@](O)(CCc5ccccc5)C[C@@H]4C3)cc2)c1 [Example 277]	> 10 µM	10 µM
O=C(CN1C[C@@H]2C[C@@](O)(Cc3ccccc3)C[C@@H]2C1)c1ccc(O)c(F)c1 [Example 151, 2-((3aR,5r,6aS)-5-benzyl-5-hydroxyhexahydrocyclo-penta[c]pyrrol-2(1H)-yl)-1-(3-fluoro-4-hydroxyphenyl)ethanone]	0.1 to 1 µM	0.372 µM
O=C(Nc1ccc(F)cc1)N1C[C@H]2C[C@@H](c3ccccc3)C[C@H]2C1 [Example 101, N-(4-fluorophenyl)-5-phenyl-octahydrocylcopenta[c] pyrrole-2-carboxamide]	> 10 µM	10 µM
COc1ccc(C)cc1NC(=O)N1C[C@H]2C[C@@H](c3ccccc3)C[C@H]2C1 [Example 109, N-(2-methoxy-5-methylphenyl)-5-phenyl-octahydrocyclopenta[c] pyrrole-2-carboxamide]	> 10 µM	10 µM
O=C(CN1C[C@@H]2CC(O)(CCc3ccccc3)C[C@@H]2C1)c1ccc(-c2ccccc2)cc1 (stereo partly drawn) [Example 269, 2-[5-hydroxy-5-(2-phenylethyl)-octahydrocyclopenta[c]pyrrol-2-yl]-1-(4-phenylphenyl)ethan-1-one]	> 10 µM	10 µM
O=C1Cc2cc(C(=O)CN3C[C@@H]4C[C@@](O)(Cc5ccccc5)C[C@@H]4C3)ccc2N1 [Example 147, 5-(2-((3aR,5r,6aS)-5-benzyl-5-hydroxyhexahydrocyclo-penta[c]pyrrol-2(1H)-yl)acetyl)indolin-2-one]	0.1 to 1 µM	0.352 µM
O=C1CCc2cc(C(=O)CN3C[C@@H]4C[C@@](O)(Cc5ccccc5)C[C@@H]4C3)ccc2N1 [Example 148, 6-(2-((3aR,5r,6aS)-5-benzyl-5-hydroxyhexahydrocyclo-penta[c]pyrrol-2(1H)-yl)acetyl)-3,4-dihydroquinolin-2(1H)-one]	0.1 to 1 µM	0.137 µM
O=C(Nc1ccc(O)cc1)N1C[C@H]2C[C@@H](c3ccccc3)C[C@H]2C1 [Example 100, N-(4-hydroxyphenyl)-5-phenyl-octahydrocyclopenta[c] pyrrole-2-carboxamide]	> 10 µM	10 µM
Cc1ccccc1-c1ccc(C(=O)CN2C[C@@H]3C[C@@](O)(Cc4ccccc4)C[C@@H]3C2)cc1 [Example 260, 2-((3aR,5r,6aS)-5-benzyl-5-hydroxyhexahydrocyclo-penta[c]pyrrol-2(1H)-yl)-1-(2′-methyl-[1,1′-biphenyl]-4-yl)ethanone]	> 10 µM	10 µM
COc1ccc(C[C@]2(O)C[C@H]3CN(CC(=O)c4ccc(O)cn4)C[C@H]3C2)cc1 [Example 192, 2-[(3aR,5R,6aS)-5-hydroxy-5-[(4-methoxyphenyl)methyl]-octahydrocyclopenta[c]pyrrol-2-yl]-1-(5-hydroxypyridin-2-yl)ethan-1-one]	1 to 10 µM	7.61 µM
Cc1cccc(NC(=O)N2C[C@@H]3C[C@@](O)(Cc4ccccc4)C[C@@H]3C2)c1 [Example 129, (3aR,5r,6aS)-5-benzyl-5-hydroxy-N-(m-tolyl)hexahydrocyclo-penta[c]pyrrole-2(1H)-carboxamide]	> 10 µM	10 µM
O=C(CN1C[C@@H]2C[C@@](O)(Cc3ccccc3)C[C@@H]2C1)c1ccc(-c2ccc(O)cc2)cc1 [Example 257, 2-((3aR,5r,6aS)-5-benzyl-5-hydroxyhexahydrocyclo-penta[c]pyrrol-2(1H)-yl)-1-(4′-hydroxy-[1,1′-biphenyl]-4-yl)ethanone]	> 10 µM	10 µM
Cc1cc(F)ccc1C[C@]1(O)C[C@H]2CN(CC(=O)c3ccc(O)cn3)C[C@H]2C1 [Example 242, 2-((3aR,5r,6aS)-5-(4-fluoro-2-methylbenzyl)-5-hydroxyhexahydrocyclo-penta[c]pyrrol-2(1H)-yl)-1-(5-hydroxypyridin-2-yl)ethanone]	1 to 10 µM	2.71 µM
O=C(CN1C[C@H]2C[C@@H](Cc3ccccc3)C[C@H]2C1)c1ccc(O)cc1 [Example 303, 2-[(3aR,5S,6aS)-5-benzyl-octahydrocyclopenta[c]pyrrol-2-yl]-1-(4-hydroxyphenyl)ethan-1-onefluorophenol]	< 0.1 µM	0.0388 µM
COc1ccc(C[C@]2(O)C[C@H]3CN(CC(=O)c4ccc(O)cc4)C[C@H]3C2)cc1 [Example 184, 2-[(3aR,5R,6aS)-5-hydroxy-5-[(4-methoxyphenyl)methyl]-octahydrocyclopenta[c]pyrrol-2-yl]-1-(4-hydroxyphenyl)ethan-1-one]	< 0.1 µM	0.0433 µM
O=C(Nc1ccccc1)N1C[C@@H]2C[C@@](O)(c3ccccc3)C[C@@H]2C1 [Example 25, 5-hydroxy-N,5-diphenyl-octahydrocyclopenta[c] pyrrole-2-carboxamide]	> 10 µM	10 µM
CS(=O)(=O)Nc1ccc(C(=O)CN2C[C@@H]3C[C@@](O)(Cc4ccccc4)C[C@@H]3C2)nc1 [Example 235, N-(6-(2-((3aR,5r,6aS)-5-benzyl-5-hydroxyhexahydrocyclo-penta[c]pyrrol-2(1H)-yl)acetyl)pyridin-3-yl)methanesulfonamide]	> 10 µM	10 µM
Oc1ccc([C@@H](O)CN2C[C@@H]3C[C@](F)(Cc4ccccc4)C[C@@H]3C2)cc1 [Example 314, 4-((R)-2-((3aR,5S,6aS)-5-benzyl-5-fluoro-hexahydrocyclopen-ta[c]pyrrol-2(1H)-yl)-1-hydroxyethyl)phenol]	0.1 to 1 µM	0.414 µM
Oc1ccc(C(O)CCN2C[C@@H]3C[C@@](O)(c4ccccc4)C[C@@H]3C2)cc1 (stereo partly drawn) [Example 98, 2-(3-hydroxy-3-(4-hydroxyphenyl)propyl)-5-phenyloctahydrocyclopen-ta[c]pyrrol-5-ol]	> 10 µM	10 µM
COc1ccc(NC(=O)N2C[C@@H]3C[C@@](O)(Cc4ccccc4)C[C@@H]3C2)cc1 [Example 126, (3aR,5r,6aS)-5-benzyl-5-hydroxy-N-(4-methoxy-phenyl)hexahydro-cyclopenta[c]pyrrole-2(1H)-carboxamide]	> 10 µM	10 µM
O=C(CN1C[C@@H]2C[C@@](O)(Cc3ccc(F)c(F)c3)C[C@@H]2C1)c1ccc(O)cn1 [Example 239, 2-((3aR,5r,6aS)-5-(3,4-difluorobenzyl)-5-hydroxyhexahydrocyclo-penta[c]pyrrol-2(1H)-yl)-1-(5-hydroxypyridin-2-yl)ethanone]	> 10 µM	10 µM
O=C(CN1C[C@@H]2CN(Cc3ccccc3)C[C@@H]2C1)c1ccc(O)cn1 [Example 328, 2-(5-benzylhexahydropyrrolo [3,4-c]pyrrol-2(1H)-yl)-1-(5-hydroxypyridin-2-yl)ethanone]	> 10 µM	10 µM
O=C(CN1C[C@@H]2C[C@@](O)(Cc3ccccc3)C[C@@H]2C1)c1ccc2[nH]nnc2c1 [Example 167, 2-[(3aR,5R,6aS)-5-benzyl-5-hydroxy-octahydrocyclopenta[c]pyrrol-2-yl]-1-(1H-1,2,3-benzotriazol-5-yl)ethan-1-one]	> 10 µM	10 µM
O=C(Nc1ccc(Cl)c(C(F)(F)F)c1)N1C[C@@H]2C[C@@](O)(Cc3ccccc3)C[C@@H]2C1 [Example 120, (3aR,5r,6aS)-5-benzyl-N-(4-chloro-3-(trifluoromethyl)phenyl)-5-hydroxyhexahydrocyclo-penta[c]pyrrole-2(1H)-carboxamide]	> 10 µM	10 µM
O=C(CN1C[C@@H]2C[C@@](O)(Cc3ccccn3)C[C@@H]2C1)c1ccc(O)cc1 [Example 231, 2-((3aR,5r,6aS)-5-hydroxy-5-(pyridin-2-ylmethyl)hexahydro-cyclopenta[c]pyrrol-2(1H)-yl)-1-(4-hydroxyphenyl)ethanone]	0.1 to 1 µM	0.965 µM
O[C@@]1(c2ccc(F)cc2)C[C@H]2CN(c3ccccn3)C[C@H]2C1 [Example 80, 5-(4-fluorophenyl)-2-(pyridin-2-yl)-octahydrocyclopenta[c] pyrrol-5-ol]	> 10 µM	10 µM
O=C(CN1C[C@@H]2C[C@@](O)(Cc3ccc(Cl)cc3)C[C@@H]2C1)c1ccc(O)cn1 [Example 218, 2-((3aR,5r,6aS)-5-(4-chlorobenzyl)-5-hydroxyhexaydrocyclo-penta[c]pyrrol-2(1H)-yl)-1-(5-hydroxypyridin-2-yl)ethanone]	0.1 to 1 µM	0.374 µM
CC(=O)Nc1ccc(C(=O)CN2C[C@@H]3C[C@@](O)(Cc4ccccc4)C[C@@H]3C2)cn1 [Example 282, N-(5-(2-((3aR,5r,6aS)-5-benzyl-5-hydroxyhexahydrocyclo-penta[c]pyrrol-2(1H)-yl)acetyl)pyridin-2-yl)acetamide]	> 10 µM	10 µM
CS(=O)(=O)Nc1ccc(C(=O)CN2C[C@@H]3C[C@@](O)(Cc4ccccc4)C[C@@H]3C2)cc1 [Example 146, N-(4-(2-((3aR,5r,6aS)-5-benzyl-5-hydroxyhexahydrocyclo-penta[c]pyrrol-2(1H)-yl)acetyl)phenyl)methane-sulfonamide]	0.1 to 1 µM	0.326 µM
